# Where two headings read alike, the source gives them in different places.
# Biological target: His-tagged recombinant human Gal-3 (hGal-3) (Homo sapiens (Human), UniProt P17931)
# Assay: Gal-3 HTRF assay (His-tagged hGal-3 binding to B-ASF);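 note: compounds preincubated 30 min with hGal-3, then 1 h with B-ASF, detection via terbium anti-His antibody and streptavidin d2. Control with B-ASF counts as full signal, omitting B-ASF as background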
# [1] = HTRF, hGal-3 15 nM, B-ASF 15 nM, read-out: hGal-3 IC50
# His-tagged recombinant human Gal-3 (hGal-3), sequence (P17931 whole entry): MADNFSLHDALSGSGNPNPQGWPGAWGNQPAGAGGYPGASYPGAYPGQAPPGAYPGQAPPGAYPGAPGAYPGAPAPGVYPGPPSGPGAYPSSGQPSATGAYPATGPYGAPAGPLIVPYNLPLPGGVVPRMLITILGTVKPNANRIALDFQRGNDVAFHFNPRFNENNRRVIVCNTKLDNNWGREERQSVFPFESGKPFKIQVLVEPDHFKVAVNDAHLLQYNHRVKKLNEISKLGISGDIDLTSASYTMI
IC50 [1] [nM],Compound,also measured
450,COc1ccc(-n2cnnc2[C@@H]2O[C@H](CO)[C@H](O)[C@H](n3cc(-c4cc(F)c(F)c(F)c4)nn3)[C@H]2O)cc1 [Example 98],–
30,"CO[C@@H]1[C@@H](n2cc(-c3cc(F)c(F)c(F)c3)nn2)[C@@H](O)[C@@H](CO)O[C@H]1c1nncn1-c1ccc2nc(C)sc2c1 [Example 282, (2R,3R,4S,5R,6S)-2-(hydroxymethyl)-5-methoxy-6-(4-(2-methylbenzo[d]thiazol-6-yl)-4H-1,2,4-triazol-3-yl)-4-(4-(3,4,5-trifluorophenyl)-1H-1,2,3-triazol-1-yl)tetrahydro-2H-pyran-3-ol]",–
–,Cc1nc2cc(-c3cn([C@H]4[C@@H](O)[C@@H](CO)O[C@@H](c5ncnn5-c5ccc6nc(C)sc6c5)[C@@H]4O)nn3)cc(F)c2o1 [Example 227],IC50 (read-out: hGal3 IC50): 250 nM
–,COC(=O)Nc1ccc(-c2cn([C@H]3[C@@H](O)[C@@H](CO)O[C@@H](c4ncnn4-c4ccc5nc(C)sc5c4)[C@@H]3O)nn2)cc1F [Example 205],IC50 (read-out: hGal3 IC50): 1110 nM
160,OC[C@H]1O[C@@H](c2nncn2-c2cc(Cl)cc(C(F)(F)F)c2)[C@H](O)[C@@H](n2cc(-c3cc(F)c(F)c(F)c3)nn2)[C@H]1O [Example 118],–
–,Cc1nc([C@@H]2O[C@H](CO)[C@H](O)[C@H](n3cc(-c4ccc(F)c(Cl)c4)nn3)[C@H]2O)n(-c2cc(Cl)ccc2C(F)(F)F)n1 [Example A50],IC50 (read-out: hGal IC50): 52 nM
390,"CNC(=O)c1nc([C@H]2C[C@@H](n3cc(-c4cccc(F)c4)nn3)[C@@H](O)[C@@H](CO)O2)n(-c2ccc3nc(C)sc3c2)n1 [Example 271, 5-((2R,4R,5R,6R)-4-(4-(3-fluorophenyl)-1H-1,2,3-triazol-1-yl)-5-hydroxy-6-(hydroxymethyl)tetrahydro-2H-pyran-2-yl)-N-methyl-1-(2-methylbenzo[d]thiazol-6-yl)-1H-1,2,4-triazole-3-carboxamide]",–
–,OC[C@H]1O[C@@H](c2nncn2-c2cc(Cl)ccc2C(F)(F)F)[C@H](O)[C@@H](n2cc(-c3ccc(Cl)c(F)c3)nn2)[C@H]1O [Example 309],IC50 (read-out: hGal3 IC50): 20 nM
640,OC[C@H]1O[C@@H](c2nncn2-c2cccc(-c3nnn[nH]3)c2)[C@H](O)[C@@H](n2cc(-c3cc(F)c(F)c(F)c3)nn2)[C@H]1O [Example 112],–
–,Cc1nc([C@@H]2O[C@H](CO)[C@H](O)[C@H](n3cc(-c4cc(F)c(Cl)c(F)c4)nn3)[C@H]2O)n(-c2cc(Cl)cc3ccncc23)n1 [Example A37],IC50 (read-out: hGal IC50): 51 nM
210,COc1ccc(Cl)cc1-n1ncnc1[C@H]1C[C@@H](n2cc(-c3cc(F)c(F)c(F)c3)nn2)[C@@H](O)[C@@H](CO)O1 [Example 180],–
4090,Cc1nc2ccc(-n3ncnc3[C@@H]3O[C@H](CO)[C@H](O)[C@H](n4cc(C(N)=O)nn4)[C@H]3O)cc2s1 [Example 194],–
–,Cc1nc2ccc(-n3ncnc3[C@@H]3O[C@H](CO)[C@H](O)[C@H](n4cc(-c5cc(F)c(Br)c(F)c5)nn4)[C@H]3O)cc2s1 [Example 226],IC50 (read-out: hGal3 IC50): 70 nM
58,"Cc1nc2ccc(-n3nc(C(F)(F)F)nc3[C@@H]3O[C@H](CO)[C@H](O)[C@H](n4cc(-c5cc(F)c(F)c(F)c5)nn4)[C@H]3O)cc2s1 [Example A4, (2R,3R,4R,5R,6S)-2-(Hydroxymethyl)-6-(1-(2-methylbenzo[d]thiazol-6-yl)-3-(trifluoromethyl)-1H-1,2,4-triazol-5-yl)-4-(4-(3,4,5-trifluorophenyl)-1H-1,2,3-triazol-1-yl)tetrahydro-2H-pyran-3,5-diol]",–
220,OC[C@H]1O[C@@H](c2ncnn2-c2cccc(C(F)(F)F)c2)[C@H](O)[C@@H](n2cc(-c3cc(F)c(F)c(F)c3)nn2)[C@H]1O [Example 36],–
–,Cc1nc([C@@H]2O[C@H](CO)[C@H](O)[C@H](n3cc(-c4cc(F)c(Br)c(F)c4)nn3)[C@H]2O)n(-c2cc(Cl)ccc2C2CC2)n1 [Example A35],IC50 (read-out: hGal IC50): 151 nM
250,OC[C@H]1O[C@@H](c2ncnn2-c2cc(Cl)ccc2F)C[C@@H](n2cc(-c3cc(F)c(F)c(F)c3)nn2)[C@H]1O [Example 179],–
–,Cc1nnc([C@@H]2O[C@H](CO)[C@H](O)[C@H](n3cc(-c4cc(F)c(Cl)c(F)c4)nn3)[C@H]2O)n1-c1cc(Cl)cc2cccnc12 [Example 319],IC50 (read-out: hGal3 IC50): 14 nM
1020,OC[C@H]1O[C@@H](c2ncnn2-c2ccccc2F)[C@H](O)[C@@H](n2cc(-c3cc(F)c(F)c(F)c3)nn2)[C@H]1O [Example 40],–
–,Cc1nc2ccc(-n3cnnc3[C@@H]3O[C@H](CO)[C@H](O)[C@H](n4cc(-c5cc(F)c(Cl)c(F)c5)nn4)[C@H]3O)cc2s1 [Example 302],IC50 (read-out: hGal3 IC50): 28 nM
–,Cc1nc2ccc(-n3ncnc3[C@@H]3O[C@H](CO)[C@H](O)[C@H](n4cc(-c5ccc(C)c(F)c5)nn4)[C@H]3O)cc2s1 [Example 212],IC50 (read-out: hGal3 IC50): 60 nM
150,COc1cccc(-n2ncnc2[C@@H]2O[C@H](CO)[C@H](O)[C@H](n3cc(-c4cc(F)c(F)c(F)c4)nn3)[C@H]2O)c1 [Example 23],–

IC50 [1] [nM],Compound,also measured
40,Cc1ncc(Cl)cc1-n1cnnc1[C@@H]1O[C@H](CO)[C@H](O)[C@H](n2cc(-c3cc(F)c(F)c(F)c3)nn2)[C@H]1O [Example 138],–
1130,OC[C@H]1O[C@@H](c2nncn2-c2ccc(OC(F)(F)F)cc2)[C@H](O)[C@@H](n2cc(-c3cc(F)c(F)c(F)c3)nn2)[C@H]1O [Example 94],–
–,Cc1nc([C@@H]2O[C@H](CO)[C@H](O)[C@H](n3cc(-c4cc(F)c(F)c(F)c4)nn3)[C@H]2O)n(-c2cc(Cl)c(F)cc2Cl)n1 [Example A67],IC50 (read-out: hGal IC50): 39 nM
609,COc1cccc(-c2cnnn2[C@H]2C[C@@H](n3cc(-c4cc(F)c(F)c(F)c4)nn3)[C@@H](O)[C@@H](CO)O2)c1 [Example 16],–
–,Cc1nc([C@@H]2O[C@H](CO)[C@H](O)[C@H](n3cc(-c4cc(F)c(Cl)c(F)c4)nn3)[C@H]2O)n(-c2cc(Cl)cc3cccnc23)n1 [Example A11],IC50 (read-out: hGal IC50): 17 nM
–,Cc1nc([C@@H]2O[C@H](CO)[C@H](O)[C@H](n3cc(-c4ccc(Cl)c(F)c4F)nn3)[C@H]2O)n(-c2cc(Cl)ccc2C2CC2)n1 [Example A44],IC50 (read-out: hGal IC50): 140 nM
–,Cc1nc([C@@H]2O[C@H](CO)[C@H](O)[C@H](n3cc(-c4cc(F)c(Cl)c(Cl)c4)nn3)[C@H]2O)n(-c2cc(Cl)ccc2C(F)(F)F)n1 [Example A55],IC50 (read-out: hGal IC50): 20 nM
860,Cc1nc2ccc(-n3ncnc3[C@@H]3O[C@H](CO)[C@H](O)[C@H](n4cc(C(=O)NCc5cccc(F)c5)nn4)[C@H]3O)cc2s1 [Example 200],–
–,Cc1nc2ccc(-n3ncnc3[C@@H]3O[C@H](CO)[C@H](O)[C@H](n4cc(-c5ccc(Cl)cc5)nn4)[C@H]3O)cc2s1 [Example 237],IC50 (read-out: hGal3 IC50): 210 nM
80,"Cc1nc2ccc(-n3c([C@H]4C[C@@H](n5cc(-c6cc(F)c(F)c(F)c6)nn5)[C@@H](O)[C@@H](CO)O4)nnc3C(F)(F)F)cc2s1 [Example 281, (2R,3R,4R,6R)-2-(hydroxymethyl)-6-(4-(2-methylbenzo[d]thiazol-6-yl)-5-(trifluoromethyl)-4H-1,2,4-triazol-3-yl)-4-(4-(3,4,5-trifluorophenyl)-1H-1,2,3-triazol-1-yl)tetrahydro-2H-pyran-3-ol]",–
330,"Cc1nc2ccc(-n3nc(C(=O)O)nc3[C@H]3C[C@@H](n4cc(-c5cccc(F)c5)nn4)[C@@H](O)[C@@H](CO)O3)cc2s1 [Example 269, 5-((2R,4R,5R,6R)-4-(4-(3-fluorophenyl)-1H-1,2,3-triazol-1-yl)-5-hydroxy-6-(hydroxymethyl)tetrahydro-2H-pyran-2-yl)-1-(2-methylbenzo[d]thiazol-6-yl)-1H-1,2,4-triazole-3-carboxylic acid]",–
130,Cc1nc([C@@H]2O[C@H](CO)[C@H](O)[C@H](n3cc(-c4cc(F)c(F)c(F)c4)nn3)[C@H]2O)n(-c2cc(Cl)cc(C(F)(F)F)c2)n1 [Example 67],–
100,OC[C@H]1O[C@@H](c2nncn2-c2ccc(Cl)c(C(F)(F)F)c2)[C@H](O)[C@@H](n2cc(-c3cc(F)c(F)c(F)c3)nn2)[C@H]1O [Example 87],–
–,Cc1nc([C@@H]2O[C@H](CO)[C@H](O)[C@H](n3cc(-c4cc(F)c(Cl)c(F)c4)nn3)[C@H]2O)n(-c2cc(Cl)ccc2C(C)(C)C)n1 [Example A42],IC50 (read-out: hGal IC50): 11 nM
–,Cc1nc([C@@H]2O[C@H](CO)[C@H](O)[C@H](n3cc(-c4cc(F)c(Cl)c(F)c4)nn3)[C@H]2O)n(-c2cc(Cl)c(Cl)cc2Cl)n1 [Example A53],IC50 (read-out: hGal IC50): 58 nM
260,CNS(=O)(=O)Cc1ccc(-n2cnnc2[C@@H]2O[C@H](CO)[C@H](O)[C@H](n3cc(-c4cc(F)c(F)c(F)c4)nn3)[C@H]2O)cc1 [Example 114],–
400,OC[C@H]1O[C@@H](c2nncn2-c2ccc3nccnc3c2)[C@H](O)[C@@H](n2cc(-c3cc(F)c(F)c(F)c3)nn2)[C@H]1O [Example 124],–
50,"Cc1nc2ccc(-n3ncnc3[C@@H]3O[C@H](CO)[C@H](O)[C@H](n4cc(-c5cc(F)c(Cl)c(Cl)c5)nn4)[C@H]3O)cc2s1 [Example 221, (2R,3R,4R,5R,6S)-4-(4-(3,4-dichloro-5-fluorophenyl)-1H-1,2,3-triazol-1-yl)-2-(hydroxymethyl)-6-(1-(2-methylbenzo[d]thiazol-6-yl)-1H-1,2,4-triazol-5-yl)tetrahydro-2H-pyran-3,5-diol]",–
–,Cc1nc([C@@H]2O[C@H](CO)[C@H](O)[C@H](n3cc(-c4ccc5scnc5c4)nn3)[C@H]2O)n(-c2cc(Cl)ccc2C(F)(F)F)n1 [Example A65],IC50 (read-out: hGal IC50): 87 nM
–,Cc1nc2ccc(-n3ncnc3[C@@H]3O[C@H](CO)[C@H](O)[C@H](n4cc(-c5ccc(OC(F)(F)F)c(F)c5)nn4)[C@H]3O)cc2s1 [Example 229],IC50 (read-out: hGal3 IC50): 980 nM
650,NC(=O)c1cccc(-n2ncnc2[C@H]2C[C@@H](n3cc(-c4cc(F)c(F)c(F)c4)nn3)[C@@H](O)[C@@H](CO)O2)c1 [Example 175],–
–,Cc1nc([C@@H]2O[C@H](CO)[C@H](O)[C@H](n3cc(-c4cc(F)c(Cl)c(Cl)c4)nn3)[C@H]2O)n(-c2ccc3nc(C)sc3c2)n1 [Example A25],IC50 (read-out: hGal IC50): 45 nM
